65 molecules from patent publication US8877741B2, “Pyrrolidine derivatives, pharmaceutical compositions and uses thereof” (Boehringer Ingelheim International GmbH, priority 2013, dated 2014) can be followed below.

Chain of human ACC2 (O00763 129-2458): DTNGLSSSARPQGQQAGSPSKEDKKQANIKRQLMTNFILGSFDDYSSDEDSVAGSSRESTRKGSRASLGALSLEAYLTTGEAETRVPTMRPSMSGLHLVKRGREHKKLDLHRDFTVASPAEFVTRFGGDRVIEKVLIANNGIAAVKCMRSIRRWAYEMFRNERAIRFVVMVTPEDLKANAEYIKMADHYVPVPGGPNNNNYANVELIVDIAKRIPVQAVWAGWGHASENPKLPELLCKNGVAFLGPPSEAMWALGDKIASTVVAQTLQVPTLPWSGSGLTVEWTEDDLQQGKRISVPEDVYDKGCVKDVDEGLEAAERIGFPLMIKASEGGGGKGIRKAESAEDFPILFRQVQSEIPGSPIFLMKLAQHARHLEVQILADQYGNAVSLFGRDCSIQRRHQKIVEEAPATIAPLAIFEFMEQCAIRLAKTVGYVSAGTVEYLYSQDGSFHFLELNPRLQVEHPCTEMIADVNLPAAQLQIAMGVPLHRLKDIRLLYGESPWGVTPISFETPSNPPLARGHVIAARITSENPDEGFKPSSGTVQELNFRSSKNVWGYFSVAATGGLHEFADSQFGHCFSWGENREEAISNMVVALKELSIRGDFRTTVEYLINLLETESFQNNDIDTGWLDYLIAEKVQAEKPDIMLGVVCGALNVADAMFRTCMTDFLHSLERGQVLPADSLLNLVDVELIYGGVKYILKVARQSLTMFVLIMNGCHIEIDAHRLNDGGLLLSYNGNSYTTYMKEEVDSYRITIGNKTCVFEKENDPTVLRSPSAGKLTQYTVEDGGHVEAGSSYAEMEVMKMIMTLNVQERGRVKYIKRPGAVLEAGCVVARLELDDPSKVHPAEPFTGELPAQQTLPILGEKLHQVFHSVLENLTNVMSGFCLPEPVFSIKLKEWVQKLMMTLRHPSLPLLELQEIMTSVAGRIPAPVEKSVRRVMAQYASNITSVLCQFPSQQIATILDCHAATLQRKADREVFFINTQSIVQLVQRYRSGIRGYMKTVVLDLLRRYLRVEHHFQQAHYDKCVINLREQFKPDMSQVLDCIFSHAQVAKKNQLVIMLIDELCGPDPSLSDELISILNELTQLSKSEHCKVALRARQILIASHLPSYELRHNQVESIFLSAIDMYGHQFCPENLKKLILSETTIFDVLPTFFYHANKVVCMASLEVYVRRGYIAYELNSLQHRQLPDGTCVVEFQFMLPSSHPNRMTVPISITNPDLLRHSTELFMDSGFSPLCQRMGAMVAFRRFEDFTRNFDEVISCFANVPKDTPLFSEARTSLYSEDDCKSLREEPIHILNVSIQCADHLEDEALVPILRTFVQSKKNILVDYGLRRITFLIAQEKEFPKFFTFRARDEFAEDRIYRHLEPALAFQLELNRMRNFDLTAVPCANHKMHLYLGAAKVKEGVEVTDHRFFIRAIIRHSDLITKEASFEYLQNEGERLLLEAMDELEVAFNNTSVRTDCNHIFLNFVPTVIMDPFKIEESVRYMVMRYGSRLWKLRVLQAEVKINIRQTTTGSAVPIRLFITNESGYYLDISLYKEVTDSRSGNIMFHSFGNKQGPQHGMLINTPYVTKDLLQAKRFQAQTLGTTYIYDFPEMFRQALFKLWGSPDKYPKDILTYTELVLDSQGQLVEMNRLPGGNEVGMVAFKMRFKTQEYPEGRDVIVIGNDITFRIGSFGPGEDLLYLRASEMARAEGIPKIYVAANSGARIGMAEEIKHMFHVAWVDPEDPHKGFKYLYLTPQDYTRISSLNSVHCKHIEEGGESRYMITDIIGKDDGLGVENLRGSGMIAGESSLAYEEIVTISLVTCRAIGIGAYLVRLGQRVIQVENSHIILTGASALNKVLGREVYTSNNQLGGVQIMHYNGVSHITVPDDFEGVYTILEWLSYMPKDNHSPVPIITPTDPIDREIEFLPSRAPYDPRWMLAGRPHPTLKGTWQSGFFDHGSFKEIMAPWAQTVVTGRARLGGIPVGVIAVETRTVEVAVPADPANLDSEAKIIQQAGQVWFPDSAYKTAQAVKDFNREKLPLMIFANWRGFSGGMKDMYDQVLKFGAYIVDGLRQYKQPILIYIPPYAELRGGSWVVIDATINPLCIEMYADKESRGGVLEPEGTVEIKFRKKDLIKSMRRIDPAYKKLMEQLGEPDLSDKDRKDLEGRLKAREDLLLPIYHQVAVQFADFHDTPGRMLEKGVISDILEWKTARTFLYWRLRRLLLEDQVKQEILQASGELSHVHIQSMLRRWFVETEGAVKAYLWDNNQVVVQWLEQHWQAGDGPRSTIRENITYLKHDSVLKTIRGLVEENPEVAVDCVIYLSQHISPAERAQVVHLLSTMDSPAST

For the assay, the target named is human ACC2 (Homo sapiens (Human), UniProt O00763). The assay can be described thus: ACC2 assay, spectrophotometric 384 well assay (NADH-linked kinetic method). It counts as biochemical. As to conditions: human ACC2 construct lacking the 128 N-terminal amino acids; coupled lactate dehydrogenase/pyruvate kinase reaction, 340 nm, 25° C. Summed up:
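N-terminally truncated human ACC2 (lacking 128 residues), expressed in insect cells, was coupled to pyruvate kinase/lactate dehydrogenase, with NADH and acetyl-CoA at 2000 μM and ATP at 500 μM final. The OD340 decrease was followed over 15 min at 25 °C. Slopes were normalised to vehicle and no-acetyl-CoA controls, and IC50 came from four-parameter regression.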
The molecule `CC(=O)N[C@@H](C)c1ccc(O[C@@H]2CCN(c3ccnc(NCC(F)F)c3F)C2)cc1` [Example 1.116] came in with an IC50 of 177 nM. The molecule `CC(C)C(=O)N[C@@H](C)c1ccc(OC2CCN(c3cccc(C(F)(F)F)n3)C2)cc1` (some centres unmarked) [Example 2.38] gave an IC50 of 869 nM.

`CC(=O)N[C@@H](C)c1ccc(O[C@@H]2CCN(c3ccnc(N4CCCC4)c3C)C2)cc1` [Example 1.125] gave an IC50 of 402 nM. In the case of `CC(=O)N[C@@H](C)c1ccc(O[C@@H]2CCN(c3nccc(OCC4CC4)c3F)C2)cc1` [Example 9.67], the IC50 was found to be 146 nM. To `CC(=O)N[C@@H](C)c1ccc(O[C@@H]2CCN(c3cccc(C(F)(F)F)n3)C2)cc1` [Example 8.1, N—((S)-1-(4-((R)-1-(6-(Trifluoromethyl)pyridin-2-yl)pyrrolidin-3-yloxy)phenyl)ethyl)acetamide] belongs 62 nM. As to `COc1cccc(N2CCC(Oc3ccc([C@H](C)NC(C)=O)cc3)C2)n1` (some centres unmarked) [Example 1.57], the IC50 came out at 678 nM.

`Cc1cnc(OCC2CC2)cc1N1CCC(Oc2ccc([C@H](C)NC(=O)N(C)C)cc2)C1` (some centres unmarked) [Example 1.56] showed an IC50 of 585 nM. This IC50 and that of the molecule before are within 1.5-fold of each other.

For `CCN(C)C(=O)N[C@@H](C)c1ccc(OC2CCN(c3ccc(OCC4CC4(F)F)cn3)C2)cc1` (some centres unmarked) [Example 3.8], the IC50 is 90 nM. Consider `CC(C)Oc1cc(N2CCC(Oc3ccc([C@H](C)NC(=O)c4ccco4)cc3)C2)ccn1` (some centres unmarked) [Example 2.18], for which half-maximal inhibition (IC50) was put at 862 nM. `CC(=O)N[C@@H](C)c1ccc(O[C@@H]2CCN(c3ccnc(OC(C)C)c3F)C2)cc1` [Example 9.83] gave an IC50 of 80 nM. The molecule `CC(=O)N[C@@H](C)c1ccc(O[C@@H]2CCN(c3cccc(N4CCOCC4)n3)C2)cc1` [Example 10.13] yielded an IC50 of 498 nM.

Regarding `Cc1cc(CC(=O)N[C@@H](C)c2ccc(OC3CCN(c4ccnc(OCC(F)F)c4)C3)cc2)on1` (some centres unmarked) [Example 2.100], the IC50 was determined as 624 nM. This IC50 and that of the molecule before are within 1.5-fold of each other. For `CCCNc1nccc(N2CCC(Oc3ccc([C@H](C)NC(=O)N(C)C)cc3)C2)c1F` (some centres unmarked) [Example 5.6] the value was 36 nM.

The molecule `CC(=O)N[C@@H](C)c1ccc(O[C@@H]2CCN(c3cccc(N4CCC4)n3)C2)cc1` [Example 10.11] returned an IC50 of 209 nM. To `C[C@H](NC(=O)c1cnco1)c1ccc(OC2CCN(c3ccc(OCC4CC4(F)F)cn3)C2)cc1` (some centres unmarked) [Example 2.121] belongs 43 nM. The molecule `CC(=O)N[C@@H](C)c1ccc(OC2CCN(c3ccc(OCCC(F)(F)F)cn3)C2)cc1` (some centres unmarked) [Example 1.29] yielded an IC50 of 130 nM. `CCCNc1nccc(N2CC[C@@H](Oc3ccc([C@H](C)NC(C)=O)cc3)C2)c1Cl` [Example 1.135]: it took 62 nM to reach half-maximal inhibition (IC50). In turn, `CC(=O)N[C@@H](C)c1ccc(O[C@@H]2CCN(c3ccnc(NCC4(O)CCC4)c3F)C2)cc1` [Example 10.50] returned an IC50 of 53 nM. The IC50 values of the last two molecules are within 1.5-fold of each other. To `CC(=O)N[C@@H](C)c1ccc(O[C@@H]2CCN(c3ccnc(O[C@@H]4CCC[C@H]4O)c3)C2)cc1` [Example 9.47] belongs 745 nM; to `CCC(C)Oc1ccc(N2CCC(Oc3ccc([C@H](C)NC(C)=O)cc3)C2)nc1` (some centres unmarked) [Example 1.28], 245 nM. Molecule `CC(=O)N[C@@H](C)c1ccc(O[C@@H]2CCN(c3ccnc(OCC4CC4)c3Cl)C2)cc1` [Example 9.82] returned an IC50 of 35 nM. Regarding `CC(=O)N[C@@H](C)c1ccc(OC2CCN(c3cccc(C(F)F)n3)C2)cc1` (some centres unmarked) [Example 1.64], the IC50 came to 154 nM. This IC50 is about 4.4-fold higher than that of the molecule before. For `CC(=O)N[C@@H](C)c1ccc(O[C@@H]2CCN(c3ccnc(OCC4(C)CC4)c3)C2)cc1` [Example 9.16] the value was 35 nM; for `COc1c(N2CC[C@@H](Oc3ccc([C@H](C)NC(C)=O)cc3)C2)ccnc1OCC(C)(C)OC` [Example 1.149], 156 nM; for `CCN(C)c1cc(N2CC[C@@H](Oc3ccc([C@H](C)NC(C)=O)cc3)C2)c(F)cn1` [Example 10.23], 87 nM.

`CCCOc1cnc(N2CCC(Oc3ccc([C@H](C)NC(C)=O)cc3)C2)c(Cl)c1` (some centres unmarked) [Example 1.71]: it took 88 nM to reach half-maximal inhibition (IC50). As to `CC(=O)N[C@@H](C)c1ccc(OC2CCN(c3cccc(C4(S(C)(=O)=O)CC4)n3)C2)cc1` (some centres unmarked) [Example 1.79], half-maximal inhibition (IC50) required 950 nM. `CC(=O)N[C@@H](C)c1ccc(OC2CCN(c3ccc(OCC4CC4(F)F)nc3)C2)cc1` (some centres unmarked) [Example 1.42] yielded an IC50 of 219 nM.

Regarding `CC(=O)N[C@@H](C)c1ccc(O[C@@H]2CCN(c3ccnc(O[C@@H]4CCC[C@@H]4O)c3)C2)cc1` [Example 9.45], half-maximal inhibition (IC50) was put at 500 nM. To `CC(=O)N[C@@H](C)c1ccc(O[C@@H]2CCN(c3cc(C(F)(F)F)ccn3)C2)cc1` [Example 8.7] belongs 910 nM. The molecule `CCCOc1cc(N2CCC(Oc3ccc([C@H](C)NC(C)=O)cc3)C2)c(F)cn1` (some centres unmarked) [Example 1.72] registered an IC50 of 70 nM. As for `C[C@H](NC(=O)N1CCOCC1)c1ccc(OC2CCN(c3ccnc(N4CCC(F)(F)C4)c3F)C2)cc1` (some centres unmarked) [Example 3.23], the midpoint of inhibition, the IC50, lay at 205 nM. This IC50 lies about 2.9-fold higher than the previous one. On to `CC(=O)N[C@@H](C)c1ccc(O[C@@H]2CCN(c3ccnc(C(=O)Nc4ccc(Cl)cc4)c3)C2)cc1` [Example 8.11], for which the IC50 worked out at 1100 nM. Take `CC(=O)N[C@@H](C)c1ccc(OC2CN(c3ccc(OCC4CC4(F)F)cn3)C[C@H]2F)cc1` (some centres unmarked) [Example 1.94]: 94 nM corresponded to half-maximal inhibition (IC50). For `C[C@H](NC(=O)c1cnn(C)c1)c1ccc(OC2CCN(c3cccc(C(F)(F)F)n3)C2)cc1` (some centres unmarked) [Example 2.36] the value was 130 nM; for `CCCOc1cc(N2CCC(Oc3ccc([C@H](C)NC(C)=O)cc3)C2)c(C)cn1` (some centres unmarked) [Example 1.90], 379 nM; for `C[C@H](NC(=O)C1CC1)c1ccc(OC2CCN(c3cccc(C(F)(F)F)n3)C2)cc1` (some centres unmarked) [Example 2.49], 560 nM. `C[C@H](NC(=O)c1cnn(C)c1)c1ccc(OC2CCN(c3ccnc(OCC4CC4)c3)C2)cc1` (some centres unmarked) [Example 2.77] returned an IC50 of 69 nM.

With `CC(=O)N[C@@H](C)c1ccc(OC2CCN(c3cc(OCC(F)F)ncc3C)C2)cc1` (some centres unmarked) [Example 1.92], the IC50 is 524 nM. Compared with the last molecule, the IC50 is about 7.6-fold higher. `C[C@H](NC(=O)c1cnsc1)c1ccc(OC2CCN(c3cccc(C(F)(F)F)n3)C2)cc1` (some centres unmarked) [Example 2.45] had an IC50 of 100 nM. In the case of `COC1CCCN(c2cccc(N3CC[C@@H](Oc4ccc([C@H](C)NC(C)=O)cc4)C3)n2)C1` (some centres unmarked) [Example 10.37], the IC50 was found to be 325 nM. Molecule `CC(=O)N[C@@H](C)c1ccc(O[C@@H]2CCN(c3cccc(N4CC=CC4)n3)C2)cc1` [Example 10.44] came in with a 50% inhibitory concentration (IC50) of 665 nM. For `C[C@H](NC(=O)N1CCC1)c1ccc(OC2CCN(c3ccc(OCC4CC4(F)F)cn3)C2)cc1` (some centres unmarked) [Example 3.9] the value was 200 nM; for `CC(C)Oc1cc(N2CCC(Oc3ccc([C@H](C)NC(=O)CC(F)(F)F)cc3)C2)ccn1` (some centres unmarked) [Example 2.11], 1000 nM. Molecule `COc1c(N2CC[C@@H](Oc3ccc([C@H](C)NC(C)=O)cc3)C2)ccnc1OC(C)C` [Example 1.150] had an IC50 of 69 nM. Regarding `CC(C)Oc1cc(N2CCC(Oc3ccc([C@H](C)NC(=O)c4ccoc4)cc3)C2)ccn1` (some centres unmarked) [Example 2.20], the IC50 was found to be 110 nM. `COCC(=O)Nc1nc(C)c(C(=O)N[C@@H](C)c2ccc(OC3CCN(c4ccnc(OCC(F)F)c4)C3)cc2)s1` (some centres unmarked) [Example 2.96] yielded an IC50 of 55 nM. This IC50 lies about 2-fold lower than the previous one.

Molecule `C[C@H](NC(=O)c1cn[nH]c1)c1ccc(OC2CCN(c3ccnc(OCC(F)F)c3)C2)cc1` (some centres unmarked) [Example 2.99] displayed an IC50 of 85 nM.

The molecule `COC(=O)N[C@@H](C)c1ccc(OC2CCN(c3ccc(OCC4CC4(F)F)cn3)C2)cc1` (some centres unmarked) [Example 4.3] came in with an IC50 of 59 nM. `C[C@H](NC(=O)c1cn[nH]c1)c1ccc(OC2CCN(c3ccc(OCC4CC4(F)F)cn3)C2)cc1` (some centres unmarked) [Example 2.34] showed an IC50 of 69 nM. Regarding `CCC(=O)N[C@@H](C)c1ccc(OC2CCN(c3ccnc(OC(C)C)c3)C2)cc1` (some centres unmarked) [Example 2.30], the midpoint of inhibition, the IC50, lay at 455 nM. For the molecule `CCC(=O)N[C@@H](C)c1ccc(OC2CCN(c3ccc(OC[C@H]4CC4(F)F)cn3)C2)cc1` (some centres unmarked) [Example 2.91], it took 67 nM to reach half-maximal inhibition (IC50). This IC50 is about 6.8-fold lower than that of the molecule before. `CC(=O)N[C@@H](C)c1ccc(O[C@@H]2CCN(c3ccnc(N4CCCCC4)c3F)C2)cc1` [Example 1.102]: the IC50 was 61 nM. For `Cc1cncc(C(=O)N[C@@H](C)c2ccc(OC3CCN(c4cccc(C(F)(F)F)n4)C3)cc2)c1` (some centres unmarked) [Example 2.50] the value was 895 nM. The molecule `CC(=O)N[C@@H](C)c1ccc(O[C@@H]2CCN(c3ccnc(O[C@H]4CCOC4)c3)C2)cc1` [Example 9.25] had an IC50 of 572 nM. For the molecule `CC(=O)N[C@@H](C)c1ccc(O[C@@H]2CCN(c3ccnc(C(F)(F)F)c3)C2)cc1` [Example 8.4], the IC50 came out at 438 nM. On to `Cc1nocc1C(=O)N[C@@H](C)c1ccc(OC2CCN(c3cccc(C(F)(F)F)n3)C2)cc1` (some centres unmarked) [Example 2.43], for which half-maximal inhibition (IC50) was put at 57 nM. As to `CC(=O)N[C@@H](C)c1ccc(OC2CCN(c3cnc(OCC4CC4(F)F)cc3C)C2)cc1` (some centres unmarked) [Example 1.40], the IC50 came out at 775 nM. The molecule `Cc1[nH]ncc1C(=O)N[C@@H](C)c1ccc(OC2CCN(c3ccc(OCC4CC4(F)F)cn3)C2)cc1` (some centres unmarked) [Example 2.118] registered a half-inhibitory concentration (IC50) of 169 nM. Take `CNc1cccc(N2CC[C@@H](Oc3ccc([C@H](C)NC(C)=O)cc3)C2)n1` [Example 10.21]: it took 963 nM to reach half-maximal inhibition (IC50). Molecule `C[C@H](NC(=O)C1CC1)c1ccc(O[C@@H]2CCN(c3ccnc(OCC4CC4)c3)C2)cc1` [Example 9.39] showed an IC50 of 149 nM. Regarding `CC(=O)N[C@@H](C)c1ccc(O[C@@H]2CCN(c3cccc(N4CCC(C)(O)C4)n3)C2)cc1` (some centres unmarked) [Example 10.47], the IC50 amounted to 455 nM. Regarding `CCCNc1nccc(N2CCC(Oc3ccc([C@H](C)NC(=O)NCC)cc3)C2)c1F` (some centres unmarked) [Example 5.7], the IC50 was 117 nM. In turn, `CCNC(=O)N[C@@H](C)c1ccc(OC2CCN(c3ccnc(OCC(F)F)c3)C2)cc1` (some centres unmarked) [Example 3.16] yielded an IC50 of 313 nM. This IC50 lies about 2.7-fold higher than the previous one.

In the case of `C[C@H](NC(=O)C(C)(F)F)c1ccc(OC2CCN(c3cccc(C(F)(F)F)n3)C2)cc1` (some centres unmarked) [Example 2.63], the IC50 worked out at 204 nM.

As usually defined, the IC50 is the concentration at which inhibition is half-maximal. Low values mean greater potency in that assay, high ones weaker potency in that assay.
